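How tested: cells in 96-well plates exposed to compound for 48 hours at five concentrations. The concentration for 50% growth inhibition is given as GI50.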 Active and inactive are the calls of the source. Rule as the data show it: active = GI50 up to about 1.1 µM and inactive = higher.
How the values were obtained:
Experiment in all cases: growth of human tumour cells (NCI), 48 h
[1] = tested on: HT-29
[2] = tested on: SW-620
[3] = tested on: MCF7
[4] = tested on: OVCAR-3
[5] = tested on: UACC-257
[6] = tested on: MOLT-4
[7] = tested on: CCRF-CEM
[8] = tested on: NCI-H226
[9] = tested on: NCI-H23
[10] = tested on: HCC 2998
[11] = tested on: SR
[12] = tested on: OVCAR-4
[13] = tested on: Malme-3M
[14] = tested on: NCI/ADR-RES
[15] = tested on: RPMI-8226
[16] = tested on: U-251
[17] = tested on: OVCAR-8
[18] = tested on: SF-539
[19] = tested on: HOP-62
[20] = tested on: MDA-N
[21] = tested on: BT-549
[22] = tested on: SF-295
[23] = tested on: SNB-75
[24] = tested on: SK-OV-3
[25] = tested on: SK-MEL-5
[26] = tested on: OVCAR-5
[27] = tested on: SK-MEL-28
[28] = tested on: SN12C
[29] = tested on: CAKI-1
[30] = tested on: 786-0
[31] = tested on: ACHN
[32] = tested on: NCI-H522
[33] = tested on: M14
[34] = tested on: UO-31
[35] = tested on: EKVX
[36] = tested on: MDA-MB-231
[37] = tested on: A549
[38] = tested on: KM12
[39] = tested on: HL-60
[40] = tested on: HOP-92
[41] = tested on: HCT-116
[42] = tested on: UACC-62
[43] = tested on: COLO 205
[44] = tested on: TK-10
[45] = tested on: HCT-15
[46] = tested on: PC-3
[47] = tested on: LOX IMVI
[48] = tested on: MDA-MB-435
[49] = tested on: SK-MEL-2
[50] = tested on: A498
[51] = tested on: T47D
[52] = tested on: K562
[53] = tested on: IGROV-1
[54] = tested on: NCI-H460
[55] = tested on: SF-268
[56] = tested on: Hs-578T
[57] = tested on: SNB-19

Compound: c1ccc(CNc2nncc3[nH]cnc23)cc1
- GI50 [1]: > 100 µM (inactive)
- GI50 [2]: > 100 µM (inactive)
- GI50 [3]: > 100 µM (inactive)
- GI50 [4]: > 100 µM (inactive)
- GI50 [5]: > 100 µM (inactive)
- GI50 [6]: > 100 µM (inactive)
- GI50 [7]: > 100 µM (inactive)
- GI50 [8]: > 100 µM (inactive)
- GI50 [9]: > 100 µM (inactive)
- GI50 [10]: > 100 µM (inactive)
- GI50 [11]: > 100 µM (inactive)
- GI50 [12]: > 100 µM (inactive)
- GI50 [13]: 59.6 µM (inactive)
- GI50 [14]: > 100 µM (inactive)
- GI50 [15]: > 100 µM (inactive)
- GI50 [16]: > 100 µM (inactive)
- GI50 [17]: > 100 µM (inactive)
- GI50 [18]: > 100 µM (inactive)
- GI50 [19]: > 100 µM (inactive)
- GI50 [20]: > 100 µM (inactive)
- GI50 [21]: > 100 µM (inactive)
- GI50 [22]: > 100 µM (inactive)
- GI50 [23]: > 100 µM (inactive)
- GI50 [24]: > 100 µM (inactive)
- GI50 [25]: > 100 µM (inactive)
- GI50 [26]: > 100 µM (inactive)
- GI50 [27]: > 100 µM (inactive)
- GI50 [28]: > 100 µM (inactive)
- GI50 [29]: > 100 µM (inactive)
- GI50 [30]: > 100 µM (inactive)
- GI50 [31]: > 100 µM (inactive)
- GI50 [32]: > 100 µM (inactive)
- GI50 [33]: > 100 µM (inactive)
- GI50 [34]: > 100 µM (inactive)
- GI50 [35]: > 100 µM (inactive)
- GI50 [36]: > 100 µM (inactive)
- GI50 [37]: > 100 µM (inactive)
- GI50 [38]: > 100 µM (inactive)
- GI50 [39]: > 100 µM (inactive)
- GI50 [40]: 69.8 µM (inactive)
- GI50 [41]: > 100 µM (inactive)
- GI50 [42]: > 100 µM (inactive)
- GI50 [43]: > 100 µM (inactive)
- GI50 [44]: > 100 µM (inactive)
- GI50 [45]: > 100 µM
- GI50 [46]: > 100 µM (inactive)
- GI50 [47]: 88.9 µM (inactive)
- GI50 [48]: > 100 µM (inactive)
- GI50 [49]: > 100 µM (inactive)
- GI50 [50]: > 100 µM (inactive)
- GI50 [51]: > 100 µM (inactive)
- GI50 [52]: > 100 µM (inactive)
- GI50 [53]: > 100 µM (inactive)

Compound: Cc1cc(N(CCOS(C)(=O)=O)CCOS(C)(=O)=O)ccc1C=O
- GI50 [1]: 4.49 µM (inactive)
- GI50 [2]: 0.449 µM (active)
- GI50 [3]: 1.22 µM (inactive)
- GI50 [4]: 6.19 µM (inactive)
- GI50 [5]: 11.7 µM (inactive)
- GI50 [6]: 1.61 µM (inactive)
- GI50 [7]: 1.08 µM (active)
- GI50 [54]: 0.078 µM (active)
- GI50 [9]: 3.68 µM (inactive)
- GI50 [55]: 6.56 µM (inactive)
- GI50 [10]: 4.65 µM (inactive)
- GI50 [12]: 18.2 µM (inactive)
- GI50 [13]: 7.91 µM (inactive)
- GI50 [14]: 11.7 µM (inactive)
- GI50 [15]: 4.02 µM (inactive)
- GI50 [16]: 8.36 µM (inactive)
- GI50 [56]: 18.5 µM (inactive)
- GI50 [17]: 10.9 µM (inactive)
- GI50 [18]: < 0.01 µM (active)
- GI50 [20]: 11.4 µM (inactive)
- GI50 [21]: 15.2 µM (inactive)
- GI50 [22]: 4.35 µM (inactive)
- GI50 [25]: 7.78 µM (inactive)
- GI50 [26]: 6.7 µM (inactive)
- GI50 [27]: 3.68 µM (inactive)
- GI50 [28]: 1.47 µM (inactive)
- GI50 [29]: 0.127 µM (active)
- GI50 [31]: 0.379 µM (active)
- GI50 [32]: 0.142 µM (active)
- GI50 [33]: 3.05 µM (inactive)
- GI50 [34]: 2.88 µM (inactive)
- GI50 [57]: 10.2 µM (inactive)
- GI50 [35]: 3.61 µM (inactive)
- GI50 [36]: 28.5 µM (inactive)
- GI50 [37]: 0.979 µM (active)
- GI50 [38]: 14.7 µM (inactive)
- GI50 [39]: 2.98 µM (inactive)
- GI50 [40]: 9.73 µM (inactive)
- GI50 [41]: 28.9 µM (inactive)
- GI50 [42]: 2.43 µM (inactive)
- GI50 [43]: 1.39 µM (inactive)
- GI50 [44]: 2.91 µM (inactive)
- GI50 [45]: 13.2 µM
- GI50 [46]: 20 µM (inactive)
- GI50 [47]: 6.68 µM (inactive)
- GI50 [48]: 11.5 µM (inactive)
- GI50 [49]: 21.1 µM (inactive)
- GI50 [50]: 1.85 µM (inactive)
- GI50 [52]: 9.93 µM (inactive)
- GI50 [53]: 11.7 µM (inactive)
